In paper PMC3303745, “Elucidation of the Rotavirus NSP4-Caveolin-1 and -Cholesterol Interactions Using Synthetic Peptides” (Journal of Amino Acids, 2012):
“And” between values parts separate entries of the source, which are not always exact repeats. Identical values can stand only once.

Key:
NSP4_112-140 [1] = molecular target: T1, NSP4_112-140 (Rotavirus A, UniProt P04512); format: physicochemical
NSP4_112-140 [2] = molecular target: T1, NSP4_112-140; format: binding
[3] = Circular dichroism, percent α-helix of single peptides; format: physicochemical; details: CD, from molar ellipticity at 222 nm, mean ± SD, n = 4; for Percent α-helix, 50% TFE: peptide 15–35 μM in 50% trifluoroethanol; for Percent α-helix, 1 mM SUV: peptide 15–35 μM with 1 mM SUV (55 : 35 : 10, POPC/cholesterol/DOPS); for Percent α-helix, Aqueous Buffer: peptide 15–35 μM, 10 mM potassium phosphate buffer pH 7.4
[4] = cited from earlier work
RV-infected MDCK cells = assay: Treatment of RV-infected MDCK cells with cholesterol-altering drugs, NSP4 transport by immunofluorescence; format: cell-based; details: RV-infected MDCK cells (MOI 2, 12 hpi), treated in triplicate at recommended effective dose; stained with anti-NSP4_150-175 and anti-rabbit-IgG-FITC; compared to untreated infected cells
Experimental: MDCK cells were infected with RV at a multiplicity of infection (MOI) of 2 and incubated for 12 hpi. The cells were washed and treated in triplicate with the cholesterol altering drugs, fillipin [40], and nystatin [41] exactly as described. Chlorpromazine and nocodazole were utilized as negative and positive controls, respectively. Cells were fixed with methanol : acetone (1 : 1) at −20°C for 10 min, blocked with 5% dry milk for 20 min, incubated with anti-NSP4_150-175 and anti-rabbit-IgG-FITC, and examined under a UV microscope (Zeiss). The cell surface carefully was observed and the presence or absence of fluorescence carefully noted. Comparisons also were made to untreated cells. Primary and secondary antibody controls were negative. To ensure the lack of drug toxicity, a separate set of cells were treated and then stained with trypan blue.

[5] = molecular target: T2, Cy3-N-Cav_(19-40) (caveolin-1 aa 19-40, Cy3-labelled) (not fully specified); assay: other fluorescence titration; details: both partners purified
T2 construct: also called Cy3-Cav_(19-40); N-caveolin-1_(19-40)
T2 peptide: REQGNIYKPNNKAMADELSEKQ

Molecule	% helical content, Observed, 1 mM SUV (NSP4_112-140 [1]) [%]	% helical content, Observed, 50% TFE (NSP4_112-140 [1]) [%]	% helical content, Observed, Aqueous buffer (NSP4_112-140 [1]) [%]	% helical content, Theoretical, 1 mM SUV (NSP4_112-140 [1]) [%]	% helical content, Theoretical, 50% TFE (NSP4_112-140 [1]) [%]	% helical content, Theoretical, Aqueous buffer (NSP4_112-140 [1]) [%]	Percent α-helix, 50% TFE [3]	Percent α-helix, 1 mM SUV [3] [%]	Percent α-helix, Aqueous Buffer [3] [%]	Results: NSP4 transport to the cell surface (RV-infected MDCK cells)	other results
SGGKYVDSEGHLYTVPIRE [N-Cav2-20, caveolin-1 N-terminal peptide aa 2–20]	34.7 ± 6.0	46.3 ± 7.2	21.7 ± 0.8	37.7 ± 1.9	47.6 ± 1.8	23.6 ± 2.6	16.5 ± 0.9%	18.5 ± 1.9	18.9 ± 2.8		fold increase in affinity in presence of SUV over absence of membranes (NSP4_112-140 [2]): ~3 fold
EAVGKIFSNVRINLQKEI [C-Cav161-178, caveolin-1 C-terminal peptide aa 161–178]	51.9 ± 2.4	44.2 ± 10.6	25.0 ± 1.7	49.5 ± 6.2	67.8 ± 3.2	35.3 ± 1.6	57.4 ± 4.4%	42.5 ± 10.6	43.4 ± 3.8		
CC(C)CCC[C@@H](C)[C@H]1CC[C@H]2[C@@H]3CC=C4C[C@@H](O)CC[C@]4(C)[C@H]3CC[C@]12C [cholesterol]											critical micellar concentration (CMC) [4]: 25 to 40 nM
CN(C)CCCN1c2ccccc2Sc2ccc(Cl)cc21 [Chlorpromazine]										Normal NSP4 transport to the PM.	
COC(=O)Nc1nc2ccc(C(=O)c3cccs3)cc2[nH]1 [Nocodazole]										Disrupted NSP4 transport	
FEDVIAEPEGTHS [Cav68-80, caveolin-1 central region peptide aa 68–80, negative control]	31.3 ± 0.2	45.9 ± 2.8	24.2 ± 0.3	37.5 ± 1.9	49.8 ± 1.8	23.9 ± 0.7	23.1% and 24.4 ± 0.8%	21.4 ± 2.0	23.4 ± 0.9		
C[C@@H]1[C@H](O)[C@@H](C)/C=C/C=C/CC/C=C/C=C/C=C/C=C/C(O[C@H]2O[C@H](C)[C@@H](O)[C@H](N)[C@@H]2O)CC2O[C@](O)(CC(O)C(O)CCC(O)CC(O)CC(O)CC(=O)O[C@H]1C)CC(O)C2C(=O)O (stereo partly shown) [Nystatin]										Disrupted NSP4 transport	
CCCCC[C@@H](O)[C@H]1C(=O)O[C@H](C)[C@@H](O)/C=C/C=C/C=C/C=C/C=C(\C)[C@@H](O)C[C@H](O)C[C@H](O)C[C@H](O)C[C@H](O)C[C@H](O)C[C@@H]1O [Fillipin]										Disrupted NSP4 transport	
MIDKLTTREIEQVELLKRIYDKLTVQTTG (also called NSP4 (aa 112-140)) [NSP4_(112-140) peptide (rotavirus nonstructural protein 4, aa 112-140)]											Kd [5]: 40 nM
